Columns and labels:
pancreas = assay: In situ rat pancreatic perfusion, insulin and glucagon release; design: species or system Wistar Han rats; conditions: 500 nM compound, vs vehicle
Experimental: Male Wistar Han rats were purchased from Charles River Laboratories Inc. at 6 weeks of age and housed 2 per cage for two weeks with food and water ad libitum. In Situ Pancreatic perfusions were performed when the rats were eight weeks old. All procedures were performed in accordance with relevant guidelines and regulations. Food was removed 4-5 hours prior to surgery. For each surgery, the rat was fully sedated with 100 mg/kg intraperitoneal (i.p.) Na-pentobarbital (NEMBUTAL) anesthesia. The depth of anesthesia was determined by a “paw pinch” test. Surgery was not initiated until the rat was fully sedated. If necessary an additional 50 mg/kg i.p. dose (50% of original) of NEMBUTAL was given. The peritoneal cavity was opened and coeliac artery was ligated dorsally. […] cannula was inserted into coeliac artery for perfusant afflux. The left gastric artery was ligated at the esophagus-stomach junction. The hepatic portal vein was ligated dorsally and cannulated ventrally (25G cannula; towards liver) for perfusant efflux. Immediately following the surgery, the rat was placed into the perfusion chamber and perfused at 3 ml/minute with modified KREBS-RINGER buffers [see. […] et al. 2012 Reproductive biology and endocrinology 10:110]. The buffers and perfusion chamber were kept warm at 37° C. and saturated with an O^2/CO^2 gases mixture. The buffers were 2 mM or 16 mM glucose and contained either vehicle (0.1%/DMSO) or Compound A (see Table 1) or 30 mM L-Arginine. The perfusant was collected by automated fraction collector at one sample per minute rate with about 90% rate of buffer recovery. Samples were frozen at -70° C. and later analyzed for total insulin and glucagon content. For the buffers: First the following mixture was prepared in water containing 10% NaCl (1.19M), 5% KCL (94 mM), 10% […] (250 mM), 5% CaCl2-2H2O (50 mM), 5% MgSO4-7H2O (24 mM), and 5% KH2PO4 (24 mM). The buffer was then oxygenated for 20 minutes, and 3% dextran and 0.2% BSA (insulin free) were added. Glucose was added from 1M stock solution as needed. FIGS. 4A-B illustrate a pancreatic perfusion assay in Wistar Han rats, and insulin (left panel) and glucagon (right panel) release measurements. As shown (lines with open circles), a basal level of insulin and a fair amount of glucagon were secreted from pancreas when perfused with low glucose (6 mM glucose). […] Application of GPR119 agonist (500 nM Compound A, lines with solid circles) enhanced both basal and glucose-stimulated pancreas insulin secretion (left panel).

male Wistar Han rats = assay: Hyperinsulinemic-hypoglycemia clamp study; format: in vivo; conditions: for change of systemic blood glucose level during clamp / glucose infusion rate needed to maintain blood glucose at 50 mg/dl: 60 minutes prior to clamp; for change of systemic blood glucose level during clamp: FIG. 6A; for glucose infusion rate needed to maintain blood glucose at 50 mg/dl: FIG. 6B; for systemic epinephrine release at hypoglycemic status: FIG. 7C; for c-peptide release: FIG. 7D
Experimental: FIG. 5 illustrates a scheme and time-course depiction of the hyperinsulinemic-hypoglycemia clamp study performed in rats as described in EXAMPLE 4. Rats were recovered from surgery stress and pre-treated with vehicle, GLIBENCLAMIDE (5 mpk), or GPR119 agonist Compound B (10 mpk) 60 minutes prior to initiation of the clamp. From time zero, rats received an insulin bolus injection initially, then were simultaneously infused with insulin at a steady rate and glucose at an adjusted rate based on the plasma glucose level measured at every 10 minutes. Vertical bars indicate the time points when the blood specimens were collected for measurements of insulin, C-peptide, glucagon, and epinephrine/norepinephrine (0 min, 30 min, 60 min, 90 min and 120 min).
A hyperinsulinemic-hypoglycemia clamp study was performed in male Wistar Han rats as shown in FIG. 5 and described below to explore the potential roles of GPR119 agonists in regulating glucagon secretion at the hypoglycemic status. Three groups were studied, those treated with: (1) vehicle, (2) GPR119 agonist, Compound B, C, F, H, I, M and V (see Table 1 and Table 2), at 10, 30, 100, 100, 100, 30 and 30 mpk, respectively, or (3) GLIBENCLAMIDE, a sulfonylurea insulin secretagogue known to cause hypoglycemia, at 5 mpk. Blood samples (100-150 μl) were collected for insulin, C-peptide, glucagon, and epinephrine/norepinephrine measurements. Terminal bleeding was analyzed for PK measurement.
FIGS. 5, 6A-B, 7A-D and 8A-L illustrate the hyperinsulinemic-hypoglycemia clamp study of EXAMPLE 4. FIG. 5 is a scheme and time-course depiction of the hyperinsulinemic-hypoglycemia clamp study performed in rats. Vertical bars indicate the time points when the rats were infused with compound, or insulin/glucose, or blood specimens were collected for measurements of insulin, C-peptide, glucagon, and epinephrine/norepinephrine. After recovered from surgery stress, rats were pre-treated with vehicle, GLIBENCLAMIDE (5 mpk), or GPR119 agonist Compound B (10 mpk) 60 minutes prior to initiation of the clamp. From time zero, rats received an initial insulin bolus injection followed by simultaneous infusion of insulin at a steady rate and glucose at an adjusted rate. Rat plasma glucose levels (FIG. 6A) were monitored periodically, and the glucose infusion rate (FIG. 6B) was adjusted so that the blood glucose level would be maintained at 50 mg/dl.

[1] = high glucose (12 mM glucose) perfusion
[2] = low glucose (6 mM glucose) perfusion
[3] = 100 mpk, hypoglycemic status (50 mg/dL), FIGS. 8A-L
[4] = 30 mpk, hypoglycemic status (50 mg/dL), FIGS. 8A-L

## CC1(OC(=O)C2CC3COCC(C2)C3Oc2ncnc(Nc3ccc(C#N)cc3Cl)c2F)CC1 (centres unmarked) [Compound A]
pancreas; [1]
  glucose-repressed glucagon secretion from pancreas: did not affect
  glucose-stimulated pancreas insulin secretion: enhanced
pancreas; [2]
  basal glucagon release from pancreas: elevated basal glucagon release
  basal pancreas insulin secretion: enhanced

## COc1c(Nc2ccc(S(C)(=O)=O)nc2C)ncnc1OC1CCN(C(=O)OC(C)C)CC1 [Compound F]
Male Wistar Han rats; [3]
  blood glucagon secretion at hypoglycemic status: significantly elevated

## COc1ccc(Cl)cc1C(=O)NCCc1ccc(S(=O)(=O)NC(=O)NC2CCCCC2)cc1 [GLIBENCLAMIDE, glibenclamide, reference compound]
Male Wistar Han rats; 5 mpk
  change of systemic blood glucose level during clamp: rapidly decreases blood glucose level
  glucose infusion rate needed to maintain blood glucose at 50 mg/dl: requires much faster glucose infusion rate
  systemic epinephrine release at hypoglycemic status: inhibited this elevation
  c-peptide release: promotes c-peptide release
Male Wistar Han rats; 5 mpk, blood glucose dropping to 50 mg/dL, 15-60 minutes, FIGS. 7A-B
  blood glucagon secretion at hypoglycemic status: suppressed glucagon secretion

## CCc1noc(N2CCC([C@H]3C[C@H]3CCOc3ccc(S(C)(=O)=O)cn3)CC2)n1 [Compound V]
Male Wistar Han rats; [4]
  blood glucagon secretion at hypoglycemic status: significantly elevated

## CS(=O)(=O)c1ccc(OCC[C@@H]2C[C@@H]2C2CCN(c3ncc(Cl)cn3)CC2)nc1 [Compound C]
Male Wistar Han rats; [4]
  blood glucagon secretion at hypoglycemic status: significantly elevated

## COCc1noc(N2CCC([C@H]3C[C@H]3CCOc3ccc(S(C)(=O)=O)c(F)c3)CC2)n1 [Compound M]
Male Wistar Han rats; [4]
  blood glucagon secretion at hypoglycemic status: significantly elevated

## C[S+]([O-])c1ccc(OCCCC2CCN(C(=O)OC(C)(C)C)CC2)cc1F (centres unmarked) [Compound I]
Male Wistar Han rats; [3]
  blood glucagon secretion at hypoglycemic status: significantly elevated

## CCc1cnc(N2CCC(c3nc(COc4ccc(-n5cnnn5)cc4)cs3)CC2)nc1 [Compound H]
Male Wistar Han rats; [3]
  blood glucagon secretion at hypoglycemic status: significantly elevated

## COCc1cnc(N2CCC([C@H]3C[C@H]3CCOc3cc(F)c(CC(=O)N4CCC4)c(F)c3)CC2)nc1 [Compound B]
Male Wistar Han rats; 10 mpk, compared with vehicle
  change of systemic blood glucose level during clamp: comparable and slower
  glucose infusion rate needed to maintain blood glucose at 50 mg/dl: comparable and slower
Male Wistar Han rats; 10 mpk
  systemic epinephrine release at hypoglycemic status: only slightly altered
  c-peptide release: indistinguishable from vehicle control
Male Wistar Han rats; 10 mpk, blood glucose dropping to 50 mg/dL, 15-60 minutes, FIGS. 7A-B
  blood glucagon secretion at hypoglycemic status: significantly elevated

Reference: patent publication US20180353507A1, “METHODS OF PREVENTING OR TREATING HYPOGLYCEMIA BY ADMINISTERING A GPR119 AGONIST” (Merck Sharp & Dohme Corp., priority 2015, published 2018)
